{"source": "patent US20190328832A1", "about": "“ANTIMICROBIAL COMBINATIONS” (HELPERBY THERAPEUTICS LIMITED, priority 2016, published 2019)", "system": "log phase NDM-1 Klebsiella Pneumoniae (BAA2473 strain)", "assay": "Time-kill method over 24 hours against log phase NDM-1 Klebsiella pneumoniae (CFU counts)", "assay_type": "cell-based", "conditions": "perphenazine alone at 128 mg/L, FIG. 1", "protocol": "The objective of this example was to test the synergistic effect of perphenazine and colistin (in the form of colistimethate sodium) in combination against log phase NDM-1 Klebsiella Pneumoniae by time-kill methods over a time period of 24 hours. As described hereinabove, time-kill methods are another accepted test for ascertaining the presence or absence of synergy, and involve comparing the dynamic effect of a drug combination with each drug alone when assessing the effect on bacterial log or stationary-growth over time.\nMaterials and Methods • 1. Bacterial strain used: BAA2473 strain of Klebsiella pneumoniae • 2. Growth of bacteria: Log phase growth of BAA2473 was carried out according to known methods in the art, e.g. SOP R-005-00 Log Phase Growth of Bacteria. • 3. Compound preparation: • i. Perphenazine was ordered from Sigma Aldrich® UK. • ii. Colistin was obtained as Colistimethate sodium (Forest Laboratories UK 1 million I. U. 80 mg). • 4. The overnight culture was diluted with nutrient broth (Oxoid) to […] and 280 μl and 290 ul of the culture was added to each combination well and drug respectively, to make the final concentration of 300 μl. • 5. Incubation of the compounds with the bacterial suspension was carried out for 24 hours. At 0, 2, 4, 7 and 24 hours, CFU counts were performed to measure the kill effects of the drug combination.", "data": [{"smiles": "OCCN1CCN(CCCN2c3ccccc3Sc3ccc(Cl)cc32)CC1", "note": "[perphenazine, 2-[4-[3-(2-chloro-10H-phenothiazin-10-yl)propyl]piperazin-1-yl]ethanol]", "values": [{"measurement": "effect against NDM-1 K. pneumoniae (time-kill, Log CFU/ml)", "value": "little or no effect"}]}]}
